Values joined by “and” are separate entries in the source; they are usually repeats but may differ in a detail not shown here. Equal values may be shown once.
What was measured:
[1] = Ambient stability (25 ± 2° C./60 ± 5% RH) of Compound 1-A over 9 months; type: physicochemical
Description: Three conditions were tested: accelerated stability (40±2° C./[…]) over a 6-month time period, ambient stability (25±2° C./[…]) over a 9-month period, and stability under refrigerator conditions (5±3° C.) over a 9-month time period. The results for accelerated stability, ambient stability, and refrigerator conditions are shown in Table 23, Table 24, and Table 25, respectively.

[2] = Plasma levels of Compound 1 and metabolites after single oral dose of Compound 1-A, dog; type: in vivo
[3] = Plasma levels of Compound 1 and metabolites after single oral dose of Compound 1-A, monkey; type: in vivo; settings: for Compound 1 Tmax: Monkey, plasma
[4] = Heart and liver tissue levels of active triphosphate 4 hours after oral Compound 1-A, rat; type: in vivo; settings: 4 hours after single oral dose
Description: (§1) High levels of the active TP were measured in the liver of all species tested.

[5] = Heart and liver tissue levels of active triphosphate 4 hours after oral Compound 1-A, dog; type: in vivo; settings: 4 hours after single oral dose
Description: as §1

[6] = Heart and liver tissue levels of active triphosphate 4 hours after oral Compound 1-A, monkey; type: in vivo; settings: 4 hours after single oral dose
Description: as §1

[7] = Single ascending dose study of Compound 1-A in healthy volunteers (Part A); type: in vivo, human
Description: Compound 1-A was tested in a single ascending dose (SAD) study to measure its safety, tolerability, and pharmacokinetic in healthy subjects (Part A). Part A was a randomized, double-blind, placebo-controlled SAD study. Healthy subjects in Part A received a single dose of Compound 1-A or placebo in the fasting state. Subjects were confined to the clinic from Day −1 to Day 6.
Dosing in each cohort was staggered such that 2 subjects (1 active:1 placebo) were evaluated for 48 hours after dosing before the remainder of the cohort was dosed. Each cohort received Compound 1-A in ascending order. Dosing of sequential cohorts occurred based on review of available safety data (through Day 5) and plasma pharmacokinetic data (through 24 h) of the prior cohort.
As pharmacokinetic and safety data emerged from prior cohorts, doses evaluated in Cohorts 3a-4a were adjusted by increments no more than 100 mg.
Healthy volunteers in the Part A portion of the study were male and female subjects between the ages of 18 and 65. Active and placebo recipients were pooled within each Part A cohort to preserve the study blind.

[8] = test system: GT1, GT2, or GT3 HCV; experiment: 600 mg QD for 7 days in Child-Pugh A cirrhotic patients with GT1, GT2 or GT3 HCV (Part E); type: in vivo, human; settings: for Mean Max Reduction / Mean Reduction After 24 hours / HCV RNA < LOQ (15 IU/mL): 600 mg of Compound 1-A; for HCV RNA < LOQ (15 IU/mL): subjects/total
Description: Doses were administered as the Compound 1-A salt base. The free base Compound 1 equivalent is often given in parenthesis. […]
HCV-infected patients were treatment-naïve with HCV RNA ≥5 log 10 IU/mL. HCV RNA was quantified using COBAS® AmpliPrep TaqMAN® v2.0 with LLQ of 15 IU/mL. Plasma drug levels were measured using LC-MS/MS. […] Mean ages of enrolled subjects were 44, 39, and 56 years in the non-cirrhotic GT1b 600 mg dose cohort, non-cirrhotic GT3 cohort, and the cirrhotic cohort, respectively.

[9] = Three-part study (Parts C, D, E) of Compound 1-A: overall safety/tolerability and pharmacokinetics; type: in vivo, human
Description: Part C was a randomized, double-blind, placebo-controlled MAD study divided into three cohorts. […] The dose escalation only proceeded following satisfactory review of the data.
HCV-infected patients were treatment-naïve with HCV RNA ≥5 log 10 IU/mL. […] Plasma drug levels were measured using LC-MS/MS.

[10] = Solubility in biorelevant test medias (water, SGF, FaSSIF, FeSSIF); settings: for Appearance: solubility test; for Descriptive term: solubility
[11] = 25 ± 2° C./60 ± 5% RH, 1st month
[12] = 25 ± 2° C./60 ± 5% RH, 3rd month
[13] = 25 ± 2° C./60 ± 5% RH, 6th month
[14] = 25 ± 2° C./60 ± 5% RH, 9th month
[15] = Dog, 30 mg/kg single oral dose, plasma

## CNc1nc(N)nc2c1ncn2[C@@H]1O[C@H](CO[P@@](=O)(N[C@@H](C)C(=O)OC(C)C)Oc2ccccc2)[C@@H](O)[C@@]1(C)F [Compound 1-A, isopropyl ((S)-(((2R,3R,4R,5R)-5-(2-amino-6-(methylamino)-9H-purin-9-yl)-4-fluoro-3-hydroxy-4-methyltetrahydrofuran-2-yl)methoxy) (phenoxy)phosphoryl)-L-alaninate hemisulfate]
[1]; 25 ± 2° C./60 ± 5% RH, 0 month
  Appearance: White
  Assay: 98.8%
  IR: correspond
  Related Substance 1 Any other single impurity: 0.01%
  Related Substance 1 Total Impurities: 0.01%
  Water: 0.45%
[1]; [11]
  Appearance: White
  Assay: 101.1%
  Related Substance 1 Any other single impurity: 0.01%
  Related Substance 1 Total Impurities: 0.02%
  Water: 0.19%
[1]; [12]
  Appearance: White
  Assay: 99.6%
  IR: correspond
  Related Substance 1 Any other single impurity: 0.03%
  Related Substance 1 Impurity B: 0.03%
  Related Substance 1 Impurity F: 0.02%
  Related Substance 1 Total Impurities: 0.11%
  Water: 0.29%
[1]; [13]
  Appearance: White solid
  Assay: 99.7%
  IR: correspond
  Related Substance 1 Any other single impurity: 0.02%
  Related Substance 1 Impurity F: 0.01%
  Related Substance 1 Total Impurities: 0.05%
  Water: 0.46%
[1]; [14]
  Appearance: Off-white
  Assay: 100.9%
  IR: correspond
  Related Substance 1 Any other single impurity: 0.02%
  Related Substance 1 Total Impurities: 0.02%
  Water: 0.20%
[1]; after 9 months
  percentage of water: 0.2000
  total related substance 1 impurities: 0.02%
[2]; [15]
  Compound 1 Cmax: 1530 ng/mL
  Tmax: 15 to 60 min
[2]; Dog, 100 mg/kg single oral dose, plasma
  Compound 1 Tmax: 30 to 60 min
[2]; dogs, high dose group
  vomiting (animals affected): 5/5
[3]; 30 mg/kg single oral dose
  Compound 1 Tmax: 30 to 120 min
[3]; 100 mg/kg single oral dose
  Compound 1 Tmax: 60 to 120 min
[3]; monkeys, high dose group
  vomiting (animals affected): ⅕
[4]
  active TP (metabolite 1-6) level in heart: unquantifiable levels
  active TP (metabolite 1-6) level in liver: High levels
[5]
  active TP (metabolite 1-6) level in heart: Relatively low levels
  active TP (metabolite 1-6) level in liver: High levels
[6]
  active TP (metabolite 1-6) level in heart: unquantifiable levels
  active TP (metabolite 1-6) level in liver: High levels
[7]
  intensity of adverse effects: mild to moderate
[7]; healthy subjects, single dose
  serious adverse events: No serious adverse events
[8]; 600 mg QD for 7 days, CPA cirrhotic
  mean maximum HCV RNA reduction: 4.4 log10 IU/mL and 4.6 log10 IU/mL
[8]; GT1, Child-Pugh A (n = 3)
  Mean Max Reduction: 4.2 log10 IU/mL
  Mean Reduction After 24 hours: 2.4 log10 IU/mL
  HCV RNA < LOQ (15 IU/mL): 1/3
[8]; GT3, Child-Pugh A (n = 1)
  Mean Max Reduction: 4.8 log10 IU/mL
  Mean Reduction After 24 hours: 2.2 log10 IU/mL
  HCV RNA < LOQ (15 IU/mL): 0/1
[8]; cirrhotic GT1, within the first 24 hours
  HCV RNA reduction: 2.4 log10
[8]; cirrhotic GT3, within the first 24 hours
  HCV RNA reduction: 2.2 log10
[9]; based on plasma exposures
  impact of mild hepatic impairment on PK: did not significantly impact
[9]; compared to placebo
  low-grade lipid abnormalities (cholesterol and triglyceride increase): higher incidence
[9]; up to 600 mg salt form for seven days
  tolerability: well tolerated
[10]; FaSSIF
  Appearance: Turbid
  Descriptive term: Slightly
[10]; FeSSIF
  Appearance: Turbid
  Descriptive term: Slightly
[10]; SGF
  Appearance: Turbid
  Descriptive term: Soluble
[10]; Water
  Appearance: Turbid
  Descriptive term: Soluble
